# Test results reported in patent US20210268062A1, “INFLAMMATORY SKIN DISORDER TREATMENT” (NOVAPEP PTY LTD, priority 2018, published 2021).
# Experiments:
# Akt = experiment: Induction of Akt activation in keratinocytes (phosphorylation of Ser473); type: cell-based; conditions: with PAR-1 inhibitor
# Protocol: Briefly, cells are washed three times with PBS and lysed with lysis buffer (0.15 M NaCl, 0.01 mM PMSF, 1% NP-40, 0.02 M Tris, 6 M urea/H2O). Cell lysates are centrifuged at 10,000 g for 15 minutes and supernatants are separated by 10% sodium-dodecyl-sulphate polyacrylamide-gel electrophoresis (SDS-PAGE) and transferred to a PDVF membrane. The primary antibodies used are as follows against pan or phospho specific forms of Akt, GSK3β, ERK1/2. Immunoreactivity is detected by using the ECL detection system (Amersham Biosciences, Buckinghamshire, UK). Anti-human (3-actin (Sigma-Aldrich) antibody is included to normalize for unequal loading. Protein band intensity is evaluated by densitometry by ImageQuant™ LAS 4000 (GE Healthcare Life Sciences).
# To confirm activation of Akt by TR47, Akt-mediated inactivation of GSK3β via phosphorylation at Ser9 is determined. GSK3β is a well-known downstream substrate for Akt.
# p-AKT = p-AKT ELISA in AE.Hy926 cells treated with PAR1 peptide and/or thrombin; type: cell-based, human; design: pAKT compared to adding thrombin alone: dose or concentration left out as unconfirmed
# Protocol: AE.Hy926 cells (ATCC® CRL-2922′), the human umbilical vein cell line, established by fusing primary human umbilical vein cells with a thioguanine-resistant clone of A549 by exposure to polyethylene glycol (PEG), were cultured in Dulbecco's Modified Eagle's Medium (DMEM, high glucose) containing 10% fetal bovine serum (FBS) in 75 sq cm flasks. When cells reached confluence, they were trypsinzed and seeded into 48 well plates at 1×10^4 viable cells/well for 2 days to reach complete confluency. Before treatment, cells were preincubated with DMEM medium (no FBS) for 2 hrs, then switched to fresh DMEM and treated with: • PAR1 12mer peptide (shown on graphs as PAR1) (or scrambled control (SC) of PAR1 peptide) • thrombin
# either alone or at different combinations for 1 hr. After treatment, media were discarded and 100 μl lysis buffer was added to each wells and cell lysates were collected and stored in −40° C. for ELISA.
# Human p-GSK and p-AKT were measured using ELISA Dueset kits (R&D Systems) according to manufacturers' instructions.
molecule,measurement,setting,value
CC(C)c1ccc(Cn2ccc3c4c(N)nc(NC5CC5)nc4ccc32)cc1 [SCH79797],dependence of Akt activation on PAR-1,Akt,activation of Akt is dependent on PAR-1
"NPNDKYEPFWED (listed as Homo sapiens) [PAR1 peptide, PAR1 12mer peptide]",Akt activity,"p-AKT; PAR1 peptide added 15 mins before or after thrombin, FIG. 8B",enhance the Akt activity
same,activation of Akt as determined by phosphorylation of Ser473,"p-AKT; PAR1 peptide, after 1 hour, AE.Hy926 cells",induced robust activation of Akt
same,pAKT,"p-AKT; higher concentrations, eg 10 nM thrombin in the presence of peptide",significantly enhanced pAKT
same,pAKT compared to adding thrombin alone,"p-AKT; lower doses of thrombin and PAR1 peptide added together simultaneously, FIG. 8A",increased pAKT
thrombin,phosphorylation of AKT,"p-AKT; thrombin alone at 0.1 and 0.25 nM, FIG. 8A",inhibited phosphorylation of AKT
